Each structure is given as a SMILES string. Active and inactive are the calls of the source.

The nature of test [1]: Luminescence Cell-Based Dose Response HTS to Identify Inhibitors of 5'UTR Stem-Loop Driven Prion Protein mRNA Translation in H4 Neuroglioblastoma Cells. [Related pubchem assays: 1827 (Project Summary), 1813 (Primary HTS)]. It counts as functional.
Test [2] can be described thus: alpha-synuclein stem-loop luciferase translation blockers – H4 neuroglioma cells, luminescence, confirmation (AID 1988). It is filed as functional, cell-based.
In another test the test system is HEK293. In words: EBV LMP1 TES2 canonical NF-kB signalling blockers – cell-based, HEK293, luciferase, cherry-pick, dose response (AID 588343). It is filed as functional. The following applies: Homo sapiens.
The target of test [3] is T1, Latent membrane protein 1 (Human herpesvirus 4 (strain B95-8), UniProt P03230).
T1 sequence (P03230 whole entry): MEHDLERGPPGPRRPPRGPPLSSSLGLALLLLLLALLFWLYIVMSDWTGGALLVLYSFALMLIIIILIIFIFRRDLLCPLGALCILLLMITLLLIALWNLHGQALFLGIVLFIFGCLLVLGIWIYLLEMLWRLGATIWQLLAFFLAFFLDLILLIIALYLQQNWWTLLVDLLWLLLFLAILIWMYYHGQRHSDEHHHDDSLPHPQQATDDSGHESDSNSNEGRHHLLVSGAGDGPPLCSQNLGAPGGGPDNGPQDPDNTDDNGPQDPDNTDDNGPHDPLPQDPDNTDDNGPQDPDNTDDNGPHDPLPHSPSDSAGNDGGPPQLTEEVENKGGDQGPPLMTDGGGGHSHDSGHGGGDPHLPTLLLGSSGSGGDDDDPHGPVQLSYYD
Put plainly: LMP1 TES1 pathway selectivity over dsRED control – imaging, HEK293T, dual-color eGFP/dsRED, cherry-picks, selectivity assay for LMP1 NF-kB inhibitor project, dose response (AID 588398). It counts as functional, cell-based.

Test [4] has as its target Tyrosine-protein phosphatase non-receptor type 11 (Homo sapiens, UniProt Q06124). Put plainly: PTPN11 enzyme inhibitors – biochemical, selectivity assay for STEP inhibitor project, dose response (AID 602367). It counts as functional. Particulars: read-out: IC50_Mean.
Test [5] concerns the target Tyrosine-protein phosphatase non-receptor type 5 (Homo sapiens, UniProt P54829). In words: PTPN5 enzyme inhibition – biochemical, fluorescence intensity, uHTS hits, confirmation (AID 602372). It is filed as functional. Particulars: read-out: IC50_Mean.
Test [6] addresses Dual specificity protein phosphatase 3 (Homo sapiens, UniProt P51452). In words: VHR phosphatase inhibition, dose response, selectivity assay for STEP inhibitor project, biochemical (AID 602374). It is filed as functional. Particulars: read-out: IC50_Mean.
The target of a further test is Cytochrome P450 3A4 (Homo sapiens, UniProt P08684).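 Note: CYP3A4 tested as one member of a cytochrome P450 panel screen.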
Another test addresses Large T antigen (Simian virus 40, UniProt P03070). It counts as functional, Betapolyomavirus macacae.
Test [7] concerns the target 26S proteasome non-ATPase regulatory subunit 14 (Homo sapiens, UniProt O00487). In words: inhibition of proteasome subunit RPN11 – biochemical, fluorescence polarization, uHTS hits, confirmation (AID 602368). It counts as functional. Background: Fluorescence polarisation rises when a labelled molecule tumbles more slowly, as on binding a larger partner.
For test [8], the target named is 72 kDa type IV collagenase (Homo sapiens, UniProt P08253). In words: Dose Response validation of uHTS RPN11 inhibitor hits using a MMP-2 Fluorescence assay. It is filed as functional.
The target of another test is Prothrombin (Bos taurus, UniProt P00735). Put plainly: thrombin protease inhibitors – biochemical, fluorescence polarization, uHTS hits, dose response (AID 602369). It is filed as functional.
Test [9] deals with T2, Corticotropin-releasing factor receptor 2/Corticotropin-releasing factor-binding protein (Homo sapiens, UniProt P24387+Q13324).
T2 sequence (Q13324 whole entry): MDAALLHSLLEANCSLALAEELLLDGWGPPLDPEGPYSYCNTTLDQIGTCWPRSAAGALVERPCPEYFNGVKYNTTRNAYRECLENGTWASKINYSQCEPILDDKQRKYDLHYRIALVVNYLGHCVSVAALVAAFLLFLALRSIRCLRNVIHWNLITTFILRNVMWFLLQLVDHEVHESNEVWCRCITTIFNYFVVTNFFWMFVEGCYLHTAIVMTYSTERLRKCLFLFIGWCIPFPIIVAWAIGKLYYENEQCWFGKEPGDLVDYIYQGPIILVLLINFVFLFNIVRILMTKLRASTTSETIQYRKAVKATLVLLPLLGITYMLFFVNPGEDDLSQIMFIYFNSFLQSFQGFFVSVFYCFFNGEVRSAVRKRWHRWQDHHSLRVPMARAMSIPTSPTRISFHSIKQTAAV
T2 sequence (P24387 whole entry): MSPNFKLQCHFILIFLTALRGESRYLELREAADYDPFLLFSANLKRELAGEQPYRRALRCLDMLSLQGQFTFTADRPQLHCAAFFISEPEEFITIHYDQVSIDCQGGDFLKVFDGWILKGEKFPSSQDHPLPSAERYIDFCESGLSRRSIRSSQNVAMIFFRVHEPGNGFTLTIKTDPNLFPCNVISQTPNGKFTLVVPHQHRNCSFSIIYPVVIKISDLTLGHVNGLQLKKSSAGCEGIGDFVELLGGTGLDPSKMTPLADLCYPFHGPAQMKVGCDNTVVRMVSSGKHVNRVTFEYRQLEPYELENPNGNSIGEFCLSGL
In words: Dose Response confirmation of uHTS hits for small molecule antagonists of the CRF-binding protein and CRF-R2 receptor complex. The following applies: read-out: IC50_Mean. It counts as functional.

Test [10] deals with T2, Corticotropin-releasing factor receptor 2/Corticotropin-releasing factor-binding protein. In words: activators of CRF receptor 2 with binding protein – uHTS hits, confirmation (AID 602473). It is filed as functional. The following applies: read-out: EC50_Mean.
Test [11] can be described thus: blockers of CRF-binding protein–CRF-R2 complex – cell-based, uHTS hits, 384-well, dose response (AID 651639). Particulars: read-out: IC50_Mean. It counts as functional, Homo sapiens.
For test [12], the target named is Photoreceptor-specific nuclear receptor (Homo sapiens, UniProt Q9Y5X4). It is filed as functional, cell-based.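 Note: CHO-S cells with Gal4-NCOR and VP16-NR2E3 two-hybrid luciferase reporter.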
Test [13] is described as follows: Trypanosoma cruzi growth suppression in host cells – NIH3T3 host cells, beta-gal luminescence, confirmation (AID 2044).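 Note: intracellular parasites grown in NIH/3T3 mouse fibroblasts as host cells; luminescent beta-galactosidase reporter signal from transgenic T. cruzi replicating inside host cells; inhibitors lower the luminescence signal.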 It is filed as functional, cell-based.
The nature of test [14]: NIH3T3 cell viability loss – ATP luminescence, mouse fibroblasts, counter-screen, dose response (AID 2010).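 Note: cells exposed to compound for about 90 hours before reading.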 It counts as functional, cell-based. A general note: Counterscreens check selectivity or assay interference.
Test [15] is described as follows: reduction of Shn3 3'UTR-driven luciferase in osteoblasts – cell-based, Clone20 osteoblasts, firefly luciferase, cherry-picked, dose response (AID 624132).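 Note: firefly luciferase luminescence from reporter carrying the Shn3 3'UTR in osteoblasts.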 It counts as functional.
Test [16] in a line: loss of viability in HepG2 cells – cell-based, CellTiter-Glo, cherry-picked, cytotoxicity control for Shn3 inhibitor project, dose response (AID 624134). It counts as functional. (In general: Cellular ATP, detected with luciferase, serves as a proxy for viable cell number.)
Test [17] is described as follows: non-specific 3'UTR reporter inhibition in Clone20-Shn3RL – cell-based, Renilla luciferase, cherry-picked, counter-screen for Shn3 inhibitor project, dose response (AID 624133). It counts as functional.
For test [18], the target named is Potassium voltage-gated channel subfamily KQT member 2 (Rattus norvegicus, UniProt O88943). In words: blockers of KCNQ2 channel current – cell-based, automated electrophysiology, set II, rat KCNQ2, dose response (AID 588637). It counts as functional.
Test [19] concerns Streptococcus sp. 'group A'. Put plainly: Streptococcus pyogenes SK(-)GAS viability under kanamycin – luminescence, BacTiterGlo, confirmation, counter-screen for streptokinase expression inhibitor project, dose response (AID 1900). It counts as functional, organism-based.
The next test concerns the target T3, Streptokinase A (Streptococcus pyogenes serotype M1, UniProt P10520).
T3 sequence (P10520 whole entry): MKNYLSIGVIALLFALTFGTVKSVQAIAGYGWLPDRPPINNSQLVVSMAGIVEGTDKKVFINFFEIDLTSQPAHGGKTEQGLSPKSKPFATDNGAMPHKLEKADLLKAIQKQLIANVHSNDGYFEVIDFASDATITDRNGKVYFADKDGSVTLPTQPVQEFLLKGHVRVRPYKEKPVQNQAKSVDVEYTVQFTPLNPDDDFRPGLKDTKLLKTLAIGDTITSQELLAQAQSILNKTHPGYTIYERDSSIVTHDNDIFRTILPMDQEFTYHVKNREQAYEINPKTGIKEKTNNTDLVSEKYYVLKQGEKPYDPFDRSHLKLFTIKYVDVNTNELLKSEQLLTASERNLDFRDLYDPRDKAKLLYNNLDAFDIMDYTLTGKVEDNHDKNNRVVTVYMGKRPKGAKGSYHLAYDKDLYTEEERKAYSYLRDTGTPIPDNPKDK
Put plainly: viability-normalized secreted streptokinase activity reduction – plasminogen activation absorbance, OD405, dose response (AID 1914).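 Note: secreted streptokinase activity via plasminogen activation per viability signal from cell pellet.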 It is filed as functional, Streptococcus pyogenes M1 GAS.

The next test has as its system Streptococcus. Put plainly: GAS UMAA2166 growth inhibition – luminescence, BacTiterGlo, counter-screen for streptokinase expression inhibitor project, dose response (AID 1915).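 Note: potency for reduction of bacterial viability or growth.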 It is filed as functional, organism-based.
A short description of test [20]: NIH-3T3 fibroblast cytotoxicity, dose response, cytotoxicity control, cell-based, fluorescence, Alamar Blue, secondary assay (AID 2327).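 Note: NIH-3T3 mouse fibroblasts cultured with fluconazole at 8 µg/mL.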 It counts as functional.
The nature of test [21]: fluconazole-exposed Candida albicans growth modulators – fluorescence, retest, confirmation (AID 2467). It is filed as functional, cell-based.
In the next test the target is T4, Cysteine protease ATG4B (Homo sapiens, UniProt Q9Y4P1).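 Note: Fluorescence-based dose-response confirmation assay measuring inhibition of ATG4B activity.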
T4 sequence (Q9Y4P1 whole entry): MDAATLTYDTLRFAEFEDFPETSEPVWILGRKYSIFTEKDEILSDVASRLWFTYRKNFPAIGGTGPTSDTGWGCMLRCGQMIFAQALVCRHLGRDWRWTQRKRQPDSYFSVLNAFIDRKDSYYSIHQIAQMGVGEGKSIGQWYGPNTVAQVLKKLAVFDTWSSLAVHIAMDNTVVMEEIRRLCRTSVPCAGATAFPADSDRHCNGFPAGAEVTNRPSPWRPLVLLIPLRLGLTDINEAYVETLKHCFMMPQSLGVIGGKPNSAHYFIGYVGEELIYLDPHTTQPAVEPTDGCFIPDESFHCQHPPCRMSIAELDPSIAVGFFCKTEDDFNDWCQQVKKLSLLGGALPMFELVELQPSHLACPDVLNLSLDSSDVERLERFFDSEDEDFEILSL
It is filed as functional.

In the next test the target is Phospholipase A2 (Homo sapiens, UniProt P04054). It counts as functional.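 Note: confirmatory dose-response counterscreen on phospholipase A2, testing hits that came from an ultra-high-throughput screen for ATG4B inhibitors.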
Chain of Phospholipase A2 (P04054 whole entry): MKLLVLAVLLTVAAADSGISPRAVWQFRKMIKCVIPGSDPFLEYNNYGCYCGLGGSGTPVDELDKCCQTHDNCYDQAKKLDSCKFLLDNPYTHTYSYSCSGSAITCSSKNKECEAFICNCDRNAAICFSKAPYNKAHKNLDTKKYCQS

Chain of Potassium voltage-gated channel subfamily KQT member 2 (O88943 whole entry): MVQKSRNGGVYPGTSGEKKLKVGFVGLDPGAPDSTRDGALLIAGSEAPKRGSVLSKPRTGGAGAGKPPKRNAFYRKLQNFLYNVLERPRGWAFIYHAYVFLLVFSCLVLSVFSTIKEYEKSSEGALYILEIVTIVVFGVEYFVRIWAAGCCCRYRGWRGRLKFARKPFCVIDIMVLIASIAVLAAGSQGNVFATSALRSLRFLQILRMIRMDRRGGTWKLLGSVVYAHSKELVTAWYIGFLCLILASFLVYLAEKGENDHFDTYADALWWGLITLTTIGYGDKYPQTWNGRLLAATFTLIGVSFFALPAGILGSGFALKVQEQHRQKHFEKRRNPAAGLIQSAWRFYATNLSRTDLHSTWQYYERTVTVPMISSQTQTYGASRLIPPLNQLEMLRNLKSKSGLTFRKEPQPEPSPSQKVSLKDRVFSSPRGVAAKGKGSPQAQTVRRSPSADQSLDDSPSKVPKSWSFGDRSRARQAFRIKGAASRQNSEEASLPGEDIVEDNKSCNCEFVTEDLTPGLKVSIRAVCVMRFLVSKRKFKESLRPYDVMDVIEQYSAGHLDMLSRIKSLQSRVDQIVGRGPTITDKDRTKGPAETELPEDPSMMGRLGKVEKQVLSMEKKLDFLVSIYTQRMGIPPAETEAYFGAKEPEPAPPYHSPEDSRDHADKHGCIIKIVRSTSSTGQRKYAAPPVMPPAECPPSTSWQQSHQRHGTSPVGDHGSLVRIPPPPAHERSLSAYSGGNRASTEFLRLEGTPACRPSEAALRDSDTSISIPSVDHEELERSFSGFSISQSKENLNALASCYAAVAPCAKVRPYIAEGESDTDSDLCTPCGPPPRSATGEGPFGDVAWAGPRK
Chain of Photoreceptor-specific nuclear receptor (Q9Y5X4 whole entry, the tested form may be a part): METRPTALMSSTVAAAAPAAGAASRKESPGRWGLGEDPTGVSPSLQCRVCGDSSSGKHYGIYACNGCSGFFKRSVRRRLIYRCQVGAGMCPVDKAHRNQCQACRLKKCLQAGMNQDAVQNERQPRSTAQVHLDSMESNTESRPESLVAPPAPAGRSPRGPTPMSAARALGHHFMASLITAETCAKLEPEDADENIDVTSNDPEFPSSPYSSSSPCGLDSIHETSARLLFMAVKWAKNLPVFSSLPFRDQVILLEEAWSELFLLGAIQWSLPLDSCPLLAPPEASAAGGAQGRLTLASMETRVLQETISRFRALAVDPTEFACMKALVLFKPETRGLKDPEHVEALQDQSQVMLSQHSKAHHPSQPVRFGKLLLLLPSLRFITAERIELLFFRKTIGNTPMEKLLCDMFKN
Chain of Tyrosine-protein phosphatase non-receptor type 5 (P54829 whole entry): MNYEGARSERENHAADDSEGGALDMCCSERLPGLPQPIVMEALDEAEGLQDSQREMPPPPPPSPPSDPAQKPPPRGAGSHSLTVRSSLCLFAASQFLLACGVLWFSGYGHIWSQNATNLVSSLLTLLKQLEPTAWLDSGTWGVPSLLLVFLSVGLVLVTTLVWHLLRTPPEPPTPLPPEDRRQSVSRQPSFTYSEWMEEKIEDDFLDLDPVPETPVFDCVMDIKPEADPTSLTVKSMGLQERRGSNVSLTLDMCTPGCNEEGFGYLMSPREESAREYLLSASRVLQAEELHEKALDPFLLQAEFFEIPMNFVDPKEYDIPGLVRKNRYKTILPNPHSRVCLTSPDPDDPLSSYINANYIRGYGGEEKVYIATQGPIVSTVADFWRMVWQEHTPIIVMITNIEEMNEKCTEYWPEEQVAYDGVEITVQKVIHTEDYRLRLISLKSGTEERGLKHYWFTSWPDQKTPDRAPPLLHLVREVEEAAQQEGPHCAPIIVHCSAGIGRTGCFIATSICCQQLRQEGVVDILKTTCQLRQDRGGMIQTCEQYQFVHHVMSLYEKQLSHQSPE
Chain of Tyrosine-protein phosphatase non-receptor type 11 (Q06124 whole entry): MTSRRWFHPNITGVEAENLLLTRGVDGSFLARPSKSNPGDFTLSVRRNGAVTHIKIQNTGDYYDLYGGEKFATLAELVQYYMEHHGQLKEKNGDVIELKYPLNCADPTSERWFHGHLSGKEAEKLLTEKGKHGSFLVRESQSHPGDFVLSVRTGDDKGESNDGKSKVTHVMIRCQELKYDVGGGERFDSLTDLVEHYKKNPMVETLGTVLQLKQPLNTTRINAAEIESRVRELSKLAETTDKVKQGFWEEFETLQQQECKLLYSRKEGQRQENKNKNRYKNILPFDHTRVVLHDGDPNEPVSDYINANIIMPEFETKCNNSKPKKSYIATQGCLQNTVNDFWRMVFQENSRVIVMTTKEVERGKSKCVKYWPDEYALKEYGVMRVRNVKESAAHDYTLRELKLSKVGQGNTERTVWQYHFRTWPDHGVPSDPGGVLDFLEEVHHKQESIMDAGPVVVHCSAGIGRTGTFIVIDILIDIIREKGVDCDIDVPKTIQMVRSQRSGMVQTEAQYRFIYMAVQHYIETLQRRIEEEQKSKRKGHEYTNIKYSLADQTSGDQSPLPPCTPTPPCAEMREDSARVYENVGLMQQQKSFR
Chain of 72 kDa type IV collagenase (P08253 whole entry): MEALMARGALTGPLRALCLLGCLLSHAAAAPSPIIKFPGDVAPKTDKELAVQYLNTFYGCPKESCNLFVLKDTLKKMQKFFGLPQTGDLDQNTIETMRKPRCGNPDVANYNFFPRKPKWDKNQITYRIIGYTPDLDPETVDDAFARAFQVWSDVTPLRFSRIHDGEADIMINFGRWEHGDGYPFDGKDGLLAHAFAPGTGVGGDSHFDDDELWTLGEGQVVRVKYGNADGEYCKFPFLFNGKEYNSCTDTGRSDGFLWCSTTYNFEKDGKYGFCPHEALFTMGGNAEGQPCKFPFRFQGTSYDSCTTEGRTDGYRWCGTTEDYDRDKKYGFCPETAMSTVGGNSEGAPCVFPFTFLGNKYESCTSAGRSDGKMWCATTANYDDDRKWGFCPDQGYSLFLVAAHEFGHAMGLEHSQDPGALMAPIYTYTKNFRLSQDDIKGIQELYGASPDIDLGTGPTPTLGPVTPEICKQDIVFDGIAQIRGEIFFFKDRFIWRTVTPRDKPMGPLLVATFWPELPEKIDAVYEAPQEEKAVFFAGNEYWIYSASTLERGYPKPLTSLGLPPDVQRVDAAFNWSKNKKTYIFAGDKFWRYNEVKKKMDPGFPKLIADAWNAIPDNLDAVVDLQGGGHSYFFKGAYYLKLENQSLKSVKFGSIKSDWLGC
Chain of Dual specificity protein phosphatase 3 (P51452 whole entry): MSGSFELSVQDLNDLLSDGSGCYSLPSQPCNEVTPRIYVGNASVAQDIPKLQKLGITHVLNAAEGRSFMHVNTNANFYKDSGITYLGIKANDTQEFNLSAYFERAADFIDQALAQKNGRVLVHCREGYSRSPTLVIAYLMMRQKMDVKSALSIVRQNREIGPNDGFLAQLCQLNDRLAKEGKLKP
Chain of 26S proteasome non-ATPase regulatory subunit 14 (O00487 whole entry): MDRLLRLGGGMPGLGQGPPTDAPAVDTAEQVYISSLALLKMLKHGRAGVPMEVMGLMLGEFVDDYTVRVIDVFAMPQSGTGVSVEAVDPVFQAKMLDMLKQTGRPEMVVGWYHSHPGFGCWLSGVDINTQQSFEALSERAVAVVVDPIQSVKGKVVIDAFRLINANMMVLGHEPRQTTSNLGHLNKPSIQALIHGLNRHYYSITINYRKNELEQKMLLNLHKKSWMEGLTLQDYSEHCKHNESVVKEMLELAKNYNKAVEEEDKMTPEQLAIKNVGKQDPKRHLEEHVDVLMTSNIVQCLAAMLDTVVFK
Chain of Cytochrome P450 3A4 (P08684 whole entry): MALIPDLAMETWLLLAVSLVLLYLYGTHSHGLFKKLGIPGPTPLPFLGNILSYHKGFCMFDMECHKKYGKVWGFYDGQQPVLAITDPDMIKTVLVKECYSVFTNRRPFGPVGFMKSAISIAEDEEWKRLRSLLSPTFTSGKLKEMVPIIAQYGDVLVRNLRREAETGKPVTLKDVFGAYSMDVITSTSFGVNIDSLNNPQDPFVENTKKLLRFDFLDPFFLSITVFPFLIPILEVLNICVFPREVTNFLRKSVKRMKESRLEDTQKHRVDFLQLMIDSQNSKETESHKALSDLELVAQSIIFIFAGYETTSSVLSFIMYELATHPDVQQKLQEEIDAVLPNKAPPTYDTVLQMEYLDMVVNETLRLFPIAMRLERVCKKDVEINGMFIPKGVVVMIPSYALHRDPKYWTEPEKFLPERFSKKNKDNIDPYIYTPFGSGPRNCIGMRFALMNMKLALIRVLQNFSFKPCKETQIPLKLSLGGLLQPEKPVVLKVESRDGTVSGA
Chain of Large T antigen (P03070 whole entry): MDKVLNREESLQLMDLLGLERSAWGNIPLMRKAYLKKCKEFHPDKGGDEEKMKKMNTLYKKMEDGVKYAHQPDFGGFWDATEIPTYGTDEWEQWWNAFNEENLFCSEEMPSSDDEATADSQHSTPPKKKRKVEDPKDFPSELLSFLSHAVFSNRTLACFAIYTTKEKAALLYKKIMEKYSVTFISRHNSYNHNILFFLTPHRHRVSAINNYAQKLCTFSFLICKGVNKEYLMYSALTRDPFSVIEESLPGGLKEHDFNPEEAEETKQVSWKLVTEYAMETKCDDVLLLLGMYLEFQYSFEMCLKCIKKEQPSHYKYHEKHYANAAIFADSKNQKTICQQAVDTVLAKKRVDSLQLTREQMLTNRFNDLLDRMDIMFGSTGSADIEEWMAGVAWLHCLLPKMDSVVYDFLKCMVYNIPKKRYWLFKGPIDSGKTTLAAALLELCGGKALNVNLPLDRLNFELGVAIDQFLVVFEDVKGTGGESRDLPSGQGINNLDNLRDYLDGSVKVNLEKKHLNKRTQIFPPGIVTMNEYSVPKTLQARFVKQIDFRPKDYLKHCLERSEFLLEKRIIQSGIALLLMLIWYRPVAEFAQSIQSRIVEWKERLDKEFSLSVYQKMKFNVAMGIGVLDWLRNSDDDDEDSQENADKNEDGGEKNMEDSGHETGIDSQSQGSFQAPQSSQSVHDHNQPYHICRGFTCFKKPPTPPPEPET

Regarding `Cc1ccc(NC(=O)c2ccc3c(c2)OCCO3)nc1`, the EC50 in test [1] was 11.3 µM (active); in test [2], 8.65 µM (inconclusive). The AC50 (as a rule, the concentration giving half of the maximal activity seen) was 2.56 µM (active) with HEK293 and 186 µM (active) in test [3].

With `CCN1CCN(C(=S)c2ccc(Br)cc2)CC1`, the IC50 in test [4] was 1.88 µM (active); in [5], 39.4 µM (inactive); in test [6] it was 0.942 µM (active). For the same molecule, at Cytochrome P450 3A4, the AC50 was 17.8 µM (inconclusive).

Turning to `CCOc1cc(/C=C2\NC(=S)N(c3c(C)n(C)n(-c4ccccc4)c3=O)C2=O)ccc1O`, the IC50 on Large T antigen was 5.37 µM (active); in test [7], 27.9 µM (active); in [8], 9.31 µM (active); at Prothrombin, 39.7 µM (active).

`O=C(Nc1cc(Cl)cc(Cl)c1)c1coc(=O)c(Br)c1`: the IC50 in [9] was 8.37 µM (active); in test [11], > 20 µM (inactive). In [10], the EC50 is 15.1 µM (active).

On to `O=C(CSc1nnnn1-c1ccc2c(c1)OCCO2)Nc1nc2c(s1)CCCC2`, for which the IC50 in test [12] is 1.6 µM (active).

With `Cn1nc([N+](=O)[O-])nc1Oc1ccc(C(C)(C)C)cc1`, the EC50 is 0.201 µM (active) in test [13], > 60 µM (inconclusive) in test [14] and > 53 µM (inactive) in [10]. Moreover, the results for the IC50 in test [9] and in test [11] were 12.7 µM (active) and 9.25 µM (active), respectively.

Consider `COc1cc(NC(=S)N2CCN(C)CC2)c(OC)cc1Cl`, for which the figures for the IC50 in [4], in test [5] and in [6] were 7.71 µM (active), > 80 µM (inactive) and 4 µM (active), respectively.

With `C=C1C(=O)OC2CC(C)C3C=CC(=O)C3(C)C(O)C12` (stereo not given), the AC50 in test [15] was < 0.26 µM (active); in test [16] it was 5.16 µM (active); in [17] it was 2.68 µM (active). In addition, the IC50 in test [12] is 2.74 µM (active).

As for `COc1ccc(CCN(C)C(=O)c2cc(-c3ccc(C)cc3)nc3ccccc23)cc1OC`, the IC50 in test [18] is 0.59 µM (active).

As for `C/C(=N\Nc1nc(N2CCCCCC2)nc(N2CCCCCC2)n1)c1ccccc1`, the EC50 in test [19] is 7.16 µM (active); on Streptokinase A it was 5.5 µM (active); in the test with Streptococcus, 9.52 µM (active). The IC50 in [18] is 1.62 µM (active).

For the molecule `COc1cc(OC)cc(-c2nnc(Nc3nc4c(F)cccc4s3)o2)c1`, the values for the EC50 in test [20] and in test [21] were > 150 µM (inconclusive) and > 38 µM (not active), respectively. In addition, the IC50 on Cysteine protease ATG4B was 5.68 µM (active); on Phospholipase A2, > 80 µM (inactive); in [7] it was 30.1 µM (active); in [8] it was > 100 µM (inactive); on Prothrombin, 62.8 µM (active).

The values above are taken from ChEMBL document CHEMBL1201862, “PubChem BioAssay data set” (2004).
